Earlier results on four compounds are cited in patent US7494643B2, “Method and topical composition for the treatment of hyperpigmented skin” (priority 2003, dated 2009).

One data set has as its system mushroom-tyrosinases. The note with it: competitive inhibition; cited from earlier work.
Another data set concerns the target T1, human-tyrosinase (Homo sapiens, UniProt P14679).
T1 sequence (P14679 19-529): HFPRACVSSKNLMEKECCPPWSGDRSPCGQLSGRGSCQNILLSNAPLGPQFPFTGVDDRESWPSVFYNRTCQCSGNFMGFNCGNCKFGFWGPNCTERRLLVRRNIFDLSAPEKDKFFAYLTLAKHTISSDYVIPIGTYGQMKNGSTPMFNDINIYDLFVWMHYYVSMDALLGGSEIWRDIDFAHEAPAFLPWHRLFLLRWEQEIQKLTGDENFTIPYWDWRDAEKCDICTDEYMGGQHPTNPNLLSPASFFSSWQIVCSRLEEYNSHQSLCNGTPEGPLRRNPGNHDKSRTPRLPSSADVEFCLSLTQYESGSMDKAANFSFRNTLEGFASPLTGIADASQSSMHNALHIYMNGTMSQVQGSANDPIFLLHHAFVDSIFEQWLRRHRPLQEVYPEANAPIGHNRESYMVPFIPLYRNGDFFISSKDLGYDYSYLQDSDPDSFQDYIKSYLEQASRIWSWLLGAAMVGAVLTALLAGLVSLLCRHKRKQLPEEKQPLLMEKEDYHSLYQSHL
The note with it: competitive inhibition; cited from earlier work.

Another data set relates to cultured pigment cells. The note with it: cited from earlier work.
The subject of the next data set is black goldfish. The following applies: ingested by the fish; cited from earlier work.
For data set [1], the system named is tyrosinase isolated from black goldfish and standard goldfish. The following applies: cited from earlier work.
In a further data set the test system is melanocytes. The note with it: cited from earlier work.
The next data set relates to HIV. The following applies: NCI primary screen; cited from earlier work.

Turning to `OC[C@H]1O[C@@H](Oc2ccc(O)cc2)[C@H](O)[C@@H](O)[C@@H]1O` [Arbutin], the “inhibition of enzyme activity of mushroom tyrosinase” value with mushroom-tyrosinases is on record as “inhibits enzyme activity”. Besides, the “inhibition of enzyme activity of human tyrosinase” value on human-tyrosinase was “inhibits enzyme activity”. `O=c1cc(CO)occ1O` [Kojic acid]: in the data set with cultured pigment cells, the suppression of melanogenesis result is given as “suppress melanogenesis”. Further, the “colour of black goldfish after ingestion” value with black goldfish is on record as “almost yellow-brown”. The inhibition of tyrosinase entry in data set [1] is given as “inhibit tyrosinase”. Take `Oc1ccc(O)cc1` [hydroquinone]: the “cytotoxicity (destroys the cellular walls of the melanocytes)” value in the data set on melanocytes is given as “cytotoxic”.

For Vismiaphenone D, the HIV-inhibitory activity result with HIV was “HIV-inhibitory activity”.
